Patent US20240260575A1, “AGRICULTURAL AND HORTICULTURAL FUNGICIDAL COMPOSITION” (Nippon Soda Co., Ltd., priority 2021, published 2024)

Experiments:
[1] = tested on: gray mold pathogen (Botrytis cinerea); experiment: Gray mold antimicrobial test (growth inhibition rate); format: cell-based
Method: (Test Example) Gray Mold Antimicrobial Test (Growth Inhibition Rate)
Conidiospores of a gray mold pathogen (Botrytis cinerea) were added to and dispersed in a yeast extract sucrose medium, and a component (I) and a component (II) dissolved in dimethyl sulfoxide at predetermined concentrations were further added and mixed thereto, and the resulting solution was dispensed onto a 96-well microplate and cultivated in the dark at 20° C. for 3 to 5 days. After the cultivation, the turbidity at a wavelength of 405 nm was measured by a microplate reader and compared with that in the untreated case to determine the growth inhibition rate (%) for the gray mold pathogen. The test was duplicately carried out. The results are shown in Tables 3 to 7 together with expected values calculated as follows.
Expected values were calculated by using Colby's equation: E=M+N−MN/100. Here, E denotes an expected value (%) of a growth inhibition rate, M denotes a growth inhibition rate (%) in using a component (I) alone, and N denotes a growth inhibition rate (%) in using a component (II) alone.
If the actually measured growth inhibition rate (%) of a composition of a component (I) and a component (II) is higher than the expected value, E, the composition of a component (I) and a component (II) is said to have exerted synergistic effect.

[2] = tested on: cucumber powdery mildew pathogen (Sphaerotheca fuliginea); experiment: Cucumber powdery mildew control test; format: in vivo; design: scale not given here; details: sprayed onto cucumber seedlings
Description: (Test Example) Cucumber Powdery Mildew Control Test 1) Preparation of Drug Solution for Test […] The other components (II) were each formulated into an aqueous solution or suspension having a predetermined concentration. 2) Test A mixed solution of a component (I) and a component (II) at a predetermined concentration was sprayed onto cucumber seedlings (variety: “Shimo-shirazu, creeping type”, cotyledon stage). After natural drying at room temperature, conidiospores of a cucumber powdery mildew pathogen (Sphaerotheca fuliginea) were inoculated by blushing off, and the seedlings were kept in a thermostatic room at 20° C. using a 12 hour light/dark cycle for 7 to 10 days. The states of lesion development on leaves were examined by comparing with that for the untreated case, and the control values were determined. The test was duplicately carried out. The results are shown in Tables 8 to 12 together with expected values calculated as follows. Expected values were calculated by using Colby's equation: […] Here, E denotes an expected value of a control value, M denotes a control value in using a component (I) alone, and N denotes a control value in using a component (II) alone. If the actually measured control value of a composition of a component (I) and a component (II) is higher than the expected value, E, the composition of a component (I) and a component (II) is said to have exerted synergistic effect.

Row | SMILES | growth inhibition rate ([1]; Table 5, Examination 1, Compound 3 (0.25 or 0.063 ppm) alone or mixed with component (II)) [%] | growth inhibition rate ([1]; Table 5, Examination 2, Compound 3 (0.25 or 0.063 ppm) alone or mixed with component (II)) [%] | growth inhibition rate ([1]; Table 5, Examination 3, Compound 3 (0.25 or 0.063 ppm) alone or mixed with component (II)) [%] | growth inhibition rate ([1]; Table 5, Examination 4, Compound 3 (0.25 or 0.063 ppm) alone or mixed with component (II)) [%] | control value ([2]; Table 10, Examination 1, Compound 3 0.4 ppm alone or mixed with component (II)) | control value ([2]; Table 10, Examination 2, Compound 3 0.4 ppm alone or mixed with component (II)) | control value ([2]; Table 10, Examination 3, Compound 3 0.4 ppm alone or mixed with component (II)) | control value ([2]; Table 10, Examination 4, Compound 3 0.4 ppm alone or mixed with component (II)) | control value ([2]; Table 10, Examination 5, Compound 3 0.4 ppm alone or mixed with component (II)) | control value ([2]; Table 10, Examination 6, Compound 3 0.4 ppm alone or mixed with component (II)) | control value ([2]; Table 10, Examination 7, Compound 3 0.4 ppm alone or mixed with component (II)) | growth inhibition rate ([1]; Table 3, Examination 2, Compound 1 (0.25 or 0.063 ppm) alone or mixed with component (II)) [%] | growth inhibition rate ([1]; Table 3, Examination 4, Compound 1 (0.25 or 0.063 ppm) alone or mixed with component (II)) [%] | control value ([2]; Table 8, Examination 1, Compound 1 0.4 ppm alone or mixed with component (II)) | control value ([2]; Table 8, Examination 2, Compound 1 0.4 ppm alone or mixed with component (II)) | control value ([2]; Table 8, Examination 3, Compound 1 0.4 ppm alone or mixed with component (II)) | control value ([2]; Table 8, Examination 4, Compound 1 0.4 ppm alone or mixed with component (II)) | control value ([2]; Table 8, Examination 5, Compound 1 0.4 ppm alone or mixed with component (II)) | control value ([2]; Table 8, Examination 6, Compound 1 0.4 ppm alone or mixed with component (II))
1 | COc1ccc(F)cc1C(O)Cn1cc(/C(C)=N/OC(C)C)c(=O)n(C[C@H](C)NC(=O)C(C)C)c1=O (stereo partly drawn) [Compound 3, N-((2S)-1-(3-(2-(5-fluoro-2-methoxyphenyl)-2-hydroxyethyl)-5-((E)-1-(isopropoxyimino)ethyl)-2,6-dioxo-3,6-dihydropyrimidin-1(2H)-yl)propan-2-yl)isobutyramide] | 74 | 63 | 48 | 14 | 72 | 68 | 56 | 61 | 34 | 67 | 67 | – | – | – | – | – | – | – | –
2 | COc1ccc(F)cc1C(O)Cn1cc(/C(C)=N/OC(C)C)c(=O)n(C[C@@H](NC(=O)C(C)C)C(C)C)c1=O (stereo partly shown) [Compound 1] | – | – | – | – | – | – | – | – | – | – | – | 52 | 31 | 78 | 64 | 67 | 83 | 75 | 67
